Reference: publication PMC12693026, “Green Contributions to the Chemistry of Perezone and Oxidation of the Double Bond of the Side Chain: A Theoretical Study and Cytotoxic Evaluation in MDA-MB231 Cells” (Molecules, 2025)
Like-named read-outs stand apart in the source and are kept apart here.

Columns and labels:
[1] = Solubility observed in the cytotoxic testing; assay type: physicochemical; settings: observation during MTT testing
[2] = system: MDA-MB-231 breast cancer cells; experiment: MTT cytotoxicity assay on MDA-MB-231 breast cancer cells; assay type: cell-based; settings: mean ± S.D. of three values
Method: (§1) This test was performed using the MDA-MB231 breast cancer cell line (ATCC® CRM-HBT-26), as described by Mosmann. The cells were incubated at different concentrations of the compounds of interest. To generate the cell viability curves of all synthesized compounds, cells were seeded in 96-well culture plates at a density of 5000 cells/well and cultured in DMEM supplemented with 10% FBS. Cell viability was measured using MTT reagent dissolved in PBS (0.5 mg/mL). On the day of measurement, the medium was carefully replaced with fresh DMEM and 10% SFB containing diluted MTT (1:10, 10% MTT), and the sample was incubated for 1 h at 37 °C in a CO2 incubator to allow for the transformation of MTT dye into Formazan salt. After removing the incubation medium, the Formazan crystals were dissolved in 100 µL of DMSO solution. It is also important to note that the reduction in MTT was quantified by measuring absorbance at 570 nm using the Benchmark Plus absorbance microplate reader (Bio-Rad). The MTT test was repeated nine times. The proliferation percentage (% viability) was calculated according to the following:% Viability = (B/A) × 100 where A is the absorbance value of the control group and B is the absorbance value of the cells treated with the compounds of interest.
IC50 was extrapolated from the dose–response plot, obtained by plotting viability versus concentration. The concentration of the drug that reduced the viability of the cells by 50% (IC50) was determined by plotting the data points in triplicate over a concentration range and calculating the values using regression analysis.

[3] = MTT mortality on normal fibroblasts (control); assay type: cell-based; settings: human, primary dermal fibroblast normal cells, data from IC50 (µM)
Method: [The source words this procedure for another cell line and says it was used here with some conditions changed.] as §1

[4] = system: caspase-3; settings: cited from earlier work
[5] = Homo sapiens, MDA-MB-231, MDA-MB-231, MTT assay, read-out: IC50
[6] = Homo sapiens, MDA-MB-231, MDA-MB-231, MTT assay, read-out: IC50 (μg/mL)

CC(=O)OC(C)(C)C(O)CCC(C)C1=C(O)C(=O)C(C)=CC1=O (centres unmarked) [Compound 7]
solubility in the cytotoxic/IC50 testing (in words) [1]: did not show great solubility | IC50 [2, 5]: 103 ± 5.96 µM | IC50 [2, 6]: 33.2 ± 1.93 µg/mL | mortality at 24 h [3]: 96.8 ± 2.76%

CC1=C(O)C(=O)C(C(C)CCC2OC(C)(C)OC2(C)C)=CC1=O (centres unmarked) [Compound 6]
IC50 [2, 5]: 8.44 ± 1.46 µM | IC50 [2, 6]: 2.72 ± 0.47 µg/mL | mortality at 24 h [3]: 18.4 ± 1.54%

CC1=CC(=O)c2c(O)cccc2C1=O [plumbagin]
binding energy of complex with caspase-3 [4]: -10.13 kcal/mol

CC(C)=CCC[C@@H](C)C1=CC(=O)C(C)=C(O)C1=O [Compound 2, isoperezone, reference compound]
IC50 [2, 5]: 19.31 ± 0.05 µM | IC50 [2, 6]: 4.79 ± 0.01 µg/mL

CC(=O)OC(C)(C)C(O)CCC(C)C1=CC(=O)C(C)=C(O)C1=O (centres unmarked) [Compound 8]
solubility in the cytotoxic/IC50 testing (in words) [1]: poor solubility | IC50 [2, 6]: 33 µg/mL

CC1=CC(=O)C(C(C)CCC2OC(C)(C)OC2(C)C)=C(O)C1=O (centres unmarked) [Compound 5]
IC50 [2, 5]: 74.9 ± 14.8 µM | IC50 [2, 6]: 24.1 ± 4.75 µg/mL | mortality at 24 h [3]: 90.7 ± 0.58%

O=C[C@H](O)[C@@H](O)[C@@H](O)[C@H](O)C(=O)O [D-galacturonic acid]
binding energy with caspase-3 ([4]; assessed for diabetes mellitus): -4.03 kcal/mol

CC1=CC(=O)C(C(C)CCC2OC2(C)C)=C(O)C1=O (centres unmarked) [Compound 3]
IC50 [2, 5]: 9.62 ± 0.76 µM | IC50 [2, 6]: 2.54 ± 0.2 µg/mL | mortality at 24 h [3]: 19.5 ± 3.27%

CC1=CC(=O)C(C(C)CCC(O)C(C)(C)O)=C(O)C1=O (centres unmarked) [Compound 9]
IC50 [2, 5]: 101 ± 19.2 µM | IC50 [2, 6]: 28.4 ± 5.4 µg/mL | mortality at 24 h [3]: 46.4 ± 1.08%

CC1=C(O)C(=O)C(C(C)CCC2OC2(C)C)=CC1=O (centres unmarked) [Compound 4]
IC50 [2, 5]: 114 ± 31.8 µM | IC50 [2, 6]: 30 µg/mL | IC50 ([2]; MDA-MB-231, MTT assay): 30.2 ± 8.4 µg/mL | mortality at 24 h [3]: 42.38 ± 0.19%

CC1=C(O)C(=O)C(C(C)CCC(O)C(C)(C)O)=CC1=O (centres unmarked) [Compound 10]
IC50 [2, 5]: 140 ± 6.13 µM | IC50 [2, 6]: 39.4 ± 1.73 µg/mL | mortality at 24 h [3]: 68.7 ± 1.08%
